Data on one compound can be found in patent publication US10980776B2, “Synergistic pharmaceutical combination for the treatment of squamous cell carcinoma of head and neck” (Piramal Enterprises Limited, priority 2011, dated 2021).

The subject of experiment [1] is FADU cells. As to the kind of experiment: cells. To be noted: Homo sapiens; for cytotoxicity at 4.1 µM: single agent at IC50 (compound B 4.1 μM); for cytotoxicity at 9.6 µM: single agent at IC70 (compound B 9.6 μM).
Experiment [2] concerns SCC-25 cells. As to the kind of experiment: CCK-8 cytotoxicity assay, determination of inhibitory concentrations in SCC-25 cells. To be noted: SCC-25 cells, 72 hr. In kind it is cell-based. How it is done: (§1) Logarithmically growing cells were plated at a density of 3×10^3 cells/well and allowed to recover overnight. […] After 72 hours, cell toxicity was determined by CCK-8 (Cell Counting Kit-8) reagent (Dojindo Molecular Technologies, Japan); WST-8 (2-(2-methoxy-4-nitrophenyl)-3-(4-nitrophenyl)-5-(2, 4-disulfophenyl)]-2H-tetrazolium, monosodium salt) assay. In accordance with the manufacturer's instructions, 5 μl/well CCK-8 reagent was added and plates were incubated for 2 hours. The toxicity was determined by measuring the absorbance on Tecan Sapphire multi-fluorescence micro-plate reader (Tecan, Germany, GmbH) at a wavelength of 450 nm corrected to 650 nm and normalized to controls.
(§2) CCK-8 allows convenient assays using Dojindo's tetrazolium salt, WST [8[(2-(2-methoxy-4-nitrophenyl)-3-(4-nitrophenyl)-5-(2,4-disulfophenyl)-2H-tetrazolium, monosodium salt], which produces a water-soluble formazan dye upon bioreduction in the presence of an electron carrier, 1-Methoxy PMS. CCK-8 solution is added directly to the cells; no pre-mixing of components is required. CCK-8 is a sensitive nonradioactive colorimetric assay for determining the number of viable cells in cell proliferation and cytotoxicity assays. WST-8 is bio-reduced by cellular dehydrogenases to an orange formazan product that is soluble in tissue culture medium. The amount of formazan produced is directly proportional to the number of living cells. The detection sensitivity of cell proliferation assays using WST-8 is higher than assays using the other tetrazolium salts such as MIT, XTT, MTS or WST-1. Optical Density was determined at measurement wavelength of 450 nm and reference wave length of 630 nm.
(§3) The cells were seeded at a density of 3000 cells/well, in a 200 μL in tissue culture grade 96 well plate and were allowed to recover for 24 hrs in a humidified 5%±0.2 CO2 incubator at 37° C.±0.5° C. […] The final DMSO concentration was 0.5% in wells. Plates were incubated for 48 hrs in humidified 5%±0.2 CO2 incubator at 37±0.5° C. After 48 hrs the plates were removed from CO2 incubator and 5 μL of Cell counting Kit (CCK-8) per well was added. The same plate was kept at 37° C. for 3 hrs, and allowed to come to room temperature. The absorbance at a wavelength of 450 nm was read on Tecan safire reader. The percent cytotoxicity was calculated using the following formula.
A general note: Formazan colour is commonly taken as a measure of viable cells.

Experiment [3] has as its system FADU cells. As to the kind of experiment: CCK-8 cytotoxicity assay, determination of inhibitory concentrations in FADU cells. To be noted: 72 hr. In kind it is cell-based, human. As to the method: as §1, §2, §3
The subject of experiment [4] is SCC-25 cells. Description: Combination studies (single and sequential combination dosing), % cytotoxicity in SCC-25 cells. To be noted: Homo sapiens, SCC-25, SCC-25; for cytotoxicity at 1.1 µM: single agent at IC50 (compound B 1.1 μM). As to the method:
as §1, §2
Sorafenib in the following dose of final concentration 0.18 μM and compound A in the following doses of final concentration 0.1 μM, 0.4 μM and 4.1 μM were analyzed in single dose and in all possible combinations of the dose range for the two anticancer agents mentioned above. The sequence of treatment is as follows; the SCC-25 cells were treated with sorafenib for 0 to 24 hrs. At the end of 24 hrs the cells were washed two times with plain MEM (minimum essential media) medium. Fresh MEM with 10% serum (200 μL/well) was added, followed by treatment with compound A from 24 hrs to 96 hrs.
Sorafenib in the following dose of final concentration 0.18 μM and compound B in the following doses of final concentration 0.2 μM, 1.1 μM and 4.8 μM were analyzed in single dose and in all possible combinations of the dose range for the two anticancer agents mentioned above. The sequence of treatment is as follows; the SCC-25 cells were treated with sorafenib for 0 to 24 hrs. At the end of 24 hrs the cells were washed two times with plain MEM medium. Fresh MEM with 10% serum (200 μL/well) was added, followed by treatment with compound B from 24 hrs to 96 hrs.
Lapatinib in the following dose of final concentration 0.2 μM and compound A in the following doses of final concentration 0.2 μM, 0.5 μM and 3.3 μM were analyzed in single dose and in all possible combinations of the dose range for the two drugs mentioned above. The sequence of treatment is as follows; the SCC-25 cells were treated with lapatinib for 0 to 24 hrs. At the end of 24 hrs the cells were washed two times with plain MEM medium. Fresh MEM with 10% serum (200 μL/well) was added, followed by treatment with compound A from 24 hrs to 96 hrs.
Lapatinib in the following dose of final concentration 0.2 μM and compound B in the following doses of final concentration 0.2 μM, 1.1 μM and 4.8 μM were analyzed in single dose and in all possible combinations of the dose range for the two drugs mentioned above. The sequence of treatment is as follows; the SCC-25 cells were treated with lapatinib for 0 to 24 hrs. At the end of 24 hrs the cells were washed two times with plain MEM medium. Fresh MEM with 10% serum (200 μL/well) was added, followed by treatment with compound A from 24 hrs to 96 hrs.

One may read the IC90 as the concentration at which the effect reaches the 90% level. Lower therefore signals greater potency. What is called IC50 is the concentration that inhibits the measured activity by half. The IC30 is the concentration needed for an effect of 30%. Low values mean greater potency, high ones weaker potency. In general, IC70 refers to the concentration needed for an effect of 70%. Higher therefore signals a need for much substance. Consider `CN1CC[C@@H](c2c(O)cc(O)c3c(=O)cc(-c4ccc(C(F)(F)F)cc4Cl)oc23)[C@@H]1CO.Cl` [Compound B, (+)-trans-2-(2-chloro-4-trifluoromethyl-phenyl)-5,7-dihydroxy-8-(2-hydroxymethyl-1-methyl-pyrrolidin-3-yl)-chromen-4-one hydrochloride], for which the cytotoxicity at 2.3 µM with FADU cells [1] (single agent at IC30 (lapatinib 0.8 μM; compound B 2.3 μM)) is 21%; with FADU cells [1] (single agent at IC30 (sorafenib 3.9 μM; compound B 2.3 μM)), 14%. Also, the cytotoxicity at 4.1 µM with FADU cells [1] (lapatinib study) is 26%; in the experiment on FADU cells [1] (sorafenib study) it was 20%. In addition, the cytotoxicity at 9.6 µM worked out at 33% in the experiment with FADU cells [1] (lapatinib study) and 27% in the experiment on FADU cells [1] (sorafenib study). In addition, the results for the 90% effect concentration (IC90) with SCC-25 cells [2] (Homo sapiens) and in the experiment on FADU cells [3] (Homo sapiens) were 41.8 µM and 31.4 µM, respectively. The 50% inhibitory concentration (IC50) in the experiment on SCC-25 cells [2] (Homo sapiens, read-out: IC50) worked out at 1.1 µM; in the experiment on FADU cells [3] (Homo sapiens) it was 4.1 µM. Moreover, the IC30 in the experiment with SCC-25 cells [2] is 0.2 µM; in the experiment with FADU cells [3], 2.3 µM. Also, the 70% effect concentration (IC70) was 4.8 µM in the experiment on SCC-25 cells [2] and 9.6 µM in the experiment with FADU cells [3]. The cytotoxicity at 0.2 µM in the experiment on SCC-25 cells [4] (single agent at IC30 (lapatinib 0.2 μM; compound B 0.2 μM)) and with SCC-25 cells [4] (single agent at IC30 (sorafenib 0.18 μM; compound B 0.2 μM)) was 16% in each case. For the same compound, the cytotoxicity at 1.1 µM in the experiment with SCC-25 cells [4] (lapatinib study) and in the experiment on SCC-25 cells [4] (sorafenib study) was 19% each time.
